Laboratory results reported in patent US20070123546A1, “2-amino-7,8-dihydro-6H-pyrido[4,3-d]pyrimidin-5-ones” (Chiron Corporation, priority 2005, published 2007).

Biological target: His-tagged N-terminal ATP binding domain (amino acid residues 9-236) of HSP90α (Homo sapiens, UniProt P07900)
Test: HSP90 inhibitor binding potency: TRF competition binding assay
Conditions: Table 2; competition with biotinylated radicicol
Protocol: HSP90 Inhibitor Binding Potency: TRF Binding Assay
In this example, the binding potency of HSP90 inhibitors as measured by a TRF binding assay is described.
TRF competition binding assays were performed to determine the binding potency (IC50 values) of HSP90 inhibitors. Purified His-tagged N-terminal ATP binding domain (amino acid residues 9-236) of HSP90α (HSP90α GeneID: 3320; mRNA Sequence NM_005348) was incubated for two hours at room temperature in binding buffer (50 mM HEPES, 6 mM MgCl2, 20 mM KCl and 0.1% BSA) with biotinylated radicicol and progressively higher concentrations of the competing compounds. A fraction of the mixture was transferred to capture plates (coated with streptavidin) and incubated for one hour at room temperature. After washing with DELFIA wash buffer, europium-labeled anti-his antibody was added and incubated for two hours at room temperature, followed by washing with DELFIA buffer. DELFIA enhancement solution was then added. After gentle shaking for 10 minutes, the plates were read in VICTOR for europium counts.

Row | SMILES | IC50 [µM]
1 | COc1cnc(-c2cc(F)ccc2[C@H]2Cc3nc(N)nc(C)c3C(=O)N2)nc1OC [Compound 51, (R)-2-Amino-7-[2-(4,5-4-methoxy-pyrimidin-2-yl)-4-fluoro-phenyl]-4-methyl-7,8-dihydro-6H-pyrido[4,3-d]pyrimidin-5-one] | < 10
2 | COc1nc(-c2cc(F)ccc2[C@H]2Cc3nc(N)nc(C)c3C(=O)N2)ncc1Cl [Compound 52, (R)-2-Amino-7-[2-(5-chloro-4-methoxy-pyrimidin-2-yl)-4-fluoro-phenyl]-4-methyl-7,8-dihydro-6H-pyrido[4,3-d]pyrimidm-5-one] | < 10
3 | COc1cncc(-c2cc(F)ccc2[C@H]2Cc3nc(N)ncc3C(=O)N2)n1 [Compound 53, (R)-2-Amino-7-[4-fluoro-2-(6-methoxy-pyrazin-2-yl)-phenyl]-7,8-dihydro-6H-pyrido[4,3-d]pyrimidin-5-one] | < 10
4 | COc1ccccc1-c1cc(F)ccc1[C@H]1Cc2nc(N)ncc2C(=O)N1 [Compound 54, (R)-2-Amino-7-(5-fluoro-2′-methoxy-biphenyl-2-yl)-7,8-dihydro-6H-pyrido[4,3-d]pyrimidin-5-one] | < 10
5 | COc1ccc(F)cc1-c1cc(F)ccc1[C@H]1Cc2nc(N)ncc2C(=O)N1 [Compound 55, (R)-2-Ammo-7-(5,5′-difluoro-2′-methoxy-biphenyl-2-yl)-7,8-dihydro-6H-pyrido[4,3-d]pyrimidin-5-one] | < 10
6 | COc1cc(F)ccc1-c1cc(F)ccc1[C@H]1Cc2nc(N)ncc2C(=O)N1 [Compound 56, (R)-2-Amino-7-(5,4′-difluoro-2′-methoxy-biphenyl-2-yl)-7,8-dihydro-6H-pyrido[4,3-d]pyrimidin-5-one] | < 10
7 | Cc1cccc(-c2cc(F)ccc2[C@H]2Cc3nc(N)ncc3C(=O)N2)c1 [Compound 58, (R)-2-Amino-7-(5-fluoro-3′-methyl-biphenyl-2-yl)-7,8-dihydro-6H-pyrido[4,3-d]pyrimidin-5-one] | < 10
8 | Cc1ccc(-c2cc(F)ccc2[C@H]2Cc3nc(N)ncc3C(=O)N2)cc1 [Compound 60, (R)-2-Amino-7-(5-fluoro-4′-methyl-biphenyl-2-yl)-7,8-dihydro-6H-pyrido[4,3-d]pyrimidin-5-one] | < 10
9 | Cc1cc(F)ccc1-c1cc(F)ccc1[C@H]1Cc2nc(N)ncc2C(=O)N1 [Compound 61, (R)-2-Amino-7-(5,4′-difluoro-2′-methyl-biphenyl-2-yl)-7,8-dihydro-6H-pyrido[4,3-d]pyrimidin-5-one] | < 10
10 | Nc1ncc2c(n1)C[C@H](c1ccc(F)cc1-c1cccnc1)NC2=O [Compound 62, (R)-2-Amino-7-(4-fluoro-2-pyridin-3-yl-phenyl)-7,8-dihydro-6H-pyrido[4,3-d]pyrimidin-5-one] | < 10
11 | COc1ncc(-c2cc(F)ccc2[C@H]2Cc3nc(N)ncc3C(=O)N2)c(OC)n1 [Compound 63, (R)-2-Amino-7-[2-(2,4-dimethoxy-pyrimidin-5-yl)-4-fluoro-phenyl]-7,8-dihydro-6H-pyrido[4,3-d]pyrimidin-5-one] | > 10
12 | COc1nc(-c2ccccc2[C@H]2Cc3nc(N)nc(C)c3C(=O)N2)ncc1F [Compound 64, (R)-2-Amino-7-[2-(5-fluoro-4-methoxy-pyrimidin-2-yl)-phenyl]-4-methyl-7,8-dihydro-6H-pyrido[4,3-d]pyrimidin-5-one] | < 10
13 | COc1ccc(-c2cc(F)ccc2[C@H]2Cc3nc(N)nc(C)c3C(=O)N2)s1 [Compound 65, (R)-2-Amino-7-[4-fluoro-2-(5-methoxy-thiophen-2-yl)-phenyl]-4-methyl-7,8-dihydro-6H-pyrido[4,3-d]pyrimidin-5-one] | < 10
14 | Cc1nc(N)nc2c1C(=O)N[C@@H](c1ccccc1Br)C2 [Compound 66, (R)-2-Amino-7-(2-bromo-phenyl)-4-methyl-7,8-dihydro-6H-pyrido[4,3-d]pyrimidin-5-one] | > 10
15 | COc1nc(-c2ccccc2[C@H]2Cc3nc(N)nc(C)c3C(=O)N2)cs1 [Compound 67, (R)-2-Amino-7-[2-(2-methoxy-thiazol-4-yl)-phenyl]-4-methyl-7,8-dihydro-6H-pyrido[4,3-d]pyrimidin-5-one] | < 10
16 | COc1ncc(-c2ccccc2[C@H]2Cc3nc(N)nc(C)c3C(=O)N2)nc1OC [Compound 68] | < 10
17 | COc1cncc(-c2ccccc2[C@H]2Cc3nc(N)nc(C)c3C(=O)N2)n1 [Compound 69, (R)-2-Amino-7-[2-(6-methoxy-pyrazin-2-yl)-phenyl]-4-methyl-7,8-dihydro-6H-pyrido[4,3-d]pyrimidin-5-one] | < 10
18 | CCc1nc(N)nc2c1C(=O)N[C@@H](c1ccc(F)cc1Br)C2 [Compound 70, (R)-2-Amino-7-(2-bromo-4-fluoro-phenyl)-4-ethyl-7,8-dihydro-6H-pyrido[4,3-d]pyrimidin-5-one] | > 10

Row | SMILES | IC50 [µM]
19 | CCOc1cncc(-c2ccccc2[C@H]2Cc3nc(N)nc(C)c3C(=O)N2)n1 [Compound 71, (R)-2-Amino-7-[2-(6-ethoxy-pyrazin-2-yl)-phenyl]-4-methyl-7,8-dihydro-6H-pyrido[4,3-d]pyrimidin-5-one] | < 10
20 | CCOc1nc(-c2cc(F)ccc2[C@H]2Cc3nc(N)nc(C)c3C(=O)N2)ncc1F [Compound 72] | < 10
21 | COc1cccc(-c2cc(F)ccc2[C@H]2Cc3nc(N)nc(C)c3C(=O)N2)c1OC [Compound 73, (R)-2-Amino-7-(5-fluoro-2,3′-dimethoxy-biphenyl-2-yl)-4-methyl-7,8-dihydro-6H-pyrido[4,3-d]pyrimidin-5-one] | < 10
22 | CCOc1cccc(-c2cc(F)ccc2[C@H]2Cc3nc(N)nc(C)c3C(=O)N2)n1 [Compound 74] | < 10
23 | CCOc1nc(-c2cc(F)ccc2[C@H]2Cc3nc(N)nc(C)c3C(=O)N2)cnc1N [Compound 75, (R)-2-Amino-7-[2-(5-amino-6-ethoxy-pyrazin-2-yl)-4-fluoro-phenyl]-4-methyl-7,8-dihydro-6H-pyrido[4,3-d]pyrimidin-5-one] | < 10
24 | CCc1nc(N)nc2c1C(=O)N[C@@H](c1ccccc1-c1cccc(OC)n1)C2 [Compound 77, (R)-2-Amino-4-ethyl-7-[2-(6-methoxy-pyndin-2-yl)-phenyl]-7,8-dihydro-6H-pyrido[4,3-d]pyrimidin-5-one] | < 10
25 | CCc1nc(N)nc2c1C(=O)N[C@@H](c1ccccc1-c1cncc(OC)n1)C2 [Compound 78, (R)-2-Amino-4-ethyl-7-[2-(6-methoxy-pyrazin-2-yl)-phenyl]-7,8-dihydro-6H-pyrido[4,3-d]pyrimidin-5-one] | < 10
26 | CCc1nc(N)nc2c1C(=O)N[C@@H](c1ccccc1-c1cnc(N)c(OC)n1)C2 [Compound 79, (R)-2-Amino-7-[2-(5-amino-6-methoxy-pyrazin-2-yl)-phenyl]-4-ethyl-7,8-dihydro-6H-pyrido[4,3-d]pyrimidin-5-one] | < 10
27 | CCc1nc(N)nc2c1C(=O)N[C@@H](c1ccccc1-c1csc(OC)n1)C2 [Compound 80, (R)-2-Amino-4-ethyl-7-[2-(2-methoxy-thiazol-4-yl)-phenyl]-7,8-dihydro-6H-pyrido[4,3-d]pyrimidin-5-one] | > 10
28 | CCc1nc(N)nc2c1C(=O)N[C@@H](c1ccc(F)cc1-c1cccc(OC)n1)C2 [Compound 81, (R)-2-Amino-4-ethyl-7-[4-fluoro-2-(6-methoxy-pyridin-2-yl)-phenyl]-7,8-dihydro-6H-pyrido[4,3-d]pyrimidin-5-one] | < 10
29 | CCc1nc(N)nc2c1C(=O)N[C@@H](c1ccc(F)cc1-c1cncc(OC)n1)C2 [Compound 82, (R)-2-Amino-4-ethyl-7-[4-fluoro-2-(6-methoxy-pyrazin-2-yl)-phenyl]-7,8-dihydro-6H-pyrido[4,3-d]pyrimidin-5-one] | < 10
30 | CCOc1nc(-c2cc(F)ccc2[C@H]2Cc3nc(N)ncc3C(=O)N2)cnc1N [Compound 83, (R)-2-Amino-7-[2-(5-amino-6-ethoxy-pyrazin-2-yl)-4-fluoro-phenyl]-7,8-dihydro-6H-pyrido[4,3-d]pyrimidin-5-one] | < 10
31 | CCc1nc(N)nc2c1C(=O)N[C@@H](c1ccc(F)cc1-c1csc(OC)n1)C2 [Compound 84, (R)-2-Amino-4-ethyl-7-[4-fluoro-2-(2-methoxy-thiazol-4-yl)-pbenyl]-7,8-dihydro-6H-pyrido[4,3-d]pyrimidin-5-one] | < 10
32 | CCOc1cncc(-c2cc(F)ccc2[C@H]2Cc3nc(N)nc(C)c3C(=O)N2)n1 [Compound 85, (R)-2-Amino-7-[2-(6-ethoxy-pyrazin-2-yl)-4-fluoro-phenyl]-4-methyl-7,8-dihydro-6H-pyrido[4,3-d]pyrimidin-5-one] | < 10
33 | CCOc1cncc(-c2cc(F)ccc2[C@H]2Cc3nc(N)nc(CC)c3C(=O)N2)n1 [Compound 86, (R)-2-Amino-7-[2-(6-ethoxy-pyrazin-2-yl)-4-fluoro-phenyl]-4-ethyl-7,8-dihydro-6H-pyrido[4,3-d]pyrimidin-5-one] | < 10
34 | CCOc1cncc(-c2cc(F)ccc2[C@H]2Cc3nc(N)ncc3C(=O)N2)n1 [Compound 87, (R)-2-Amino-7-[2-(6-ethoxy-pyrazin-2-yl)-4-fluoro-phenyl]-7,8-dihydro-6H-pyrido[4,3-d]pyrimidin-5-one] | < 10
35 | COc1cncc(-c2scnc2[C@H]2Cc3nc(N)nc(C)c3C(=O)N2)n1 [Compound 88, (R)-2-Amino-7-[5-(6-methoxy-pyrazin-2-yl)-thiazol-4-yl]-4-methyl-7,8-dihydro-6H-pyrido[4,3-d]pyrimidin-5-one] | < 10
